Test results taken from BindingDB's records for doi:10.1124/jpet.301.3.1097 (Harvard University, 2002).

Assays:
[1] = target: Norepinephrine transporter (Rattus norvegicus, UniProt Q9JIA2)
[2] = target: Sodium-dependent dopamine transporter (Rattus norvegicus, UniProt P23977)
[3] = target: Sodium-dependent serotonin transporter (Rattus norvegicus, UniProt P31652)
Sequence of Sodium-dependent serotonin transporter (P31652 whole entry): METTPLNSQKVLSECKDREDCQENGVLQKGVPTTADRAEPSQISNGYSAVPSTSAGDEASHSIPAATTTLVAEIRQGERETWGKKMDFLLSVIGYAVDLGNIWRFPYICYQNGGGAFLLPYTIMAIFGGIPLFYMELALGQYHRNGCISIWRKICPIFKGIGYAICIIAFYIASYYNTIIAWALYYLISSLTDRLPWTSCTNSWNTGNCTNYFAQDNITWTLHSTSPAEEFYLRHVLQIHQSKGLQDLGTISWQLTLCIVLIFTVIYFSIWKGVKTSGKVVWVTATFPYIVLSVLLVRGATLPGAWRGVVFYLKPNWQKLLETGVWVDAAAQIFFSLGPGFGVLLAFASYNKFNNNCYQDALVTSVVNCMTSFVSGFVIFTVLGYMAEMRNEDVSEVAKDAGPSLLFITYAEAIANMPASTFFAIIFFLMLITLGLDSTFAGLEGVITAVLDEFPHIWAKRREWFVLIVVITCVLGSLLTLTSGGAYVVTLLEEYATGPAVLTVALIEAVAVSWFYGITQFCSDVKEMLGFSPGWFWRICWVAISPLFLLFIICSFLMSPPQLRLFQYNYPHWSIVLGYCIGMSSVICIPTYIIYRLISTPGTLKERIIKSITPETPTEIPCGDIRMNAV

Sequence of Sodium-dependent dopamine transporter (P23977 whole entry): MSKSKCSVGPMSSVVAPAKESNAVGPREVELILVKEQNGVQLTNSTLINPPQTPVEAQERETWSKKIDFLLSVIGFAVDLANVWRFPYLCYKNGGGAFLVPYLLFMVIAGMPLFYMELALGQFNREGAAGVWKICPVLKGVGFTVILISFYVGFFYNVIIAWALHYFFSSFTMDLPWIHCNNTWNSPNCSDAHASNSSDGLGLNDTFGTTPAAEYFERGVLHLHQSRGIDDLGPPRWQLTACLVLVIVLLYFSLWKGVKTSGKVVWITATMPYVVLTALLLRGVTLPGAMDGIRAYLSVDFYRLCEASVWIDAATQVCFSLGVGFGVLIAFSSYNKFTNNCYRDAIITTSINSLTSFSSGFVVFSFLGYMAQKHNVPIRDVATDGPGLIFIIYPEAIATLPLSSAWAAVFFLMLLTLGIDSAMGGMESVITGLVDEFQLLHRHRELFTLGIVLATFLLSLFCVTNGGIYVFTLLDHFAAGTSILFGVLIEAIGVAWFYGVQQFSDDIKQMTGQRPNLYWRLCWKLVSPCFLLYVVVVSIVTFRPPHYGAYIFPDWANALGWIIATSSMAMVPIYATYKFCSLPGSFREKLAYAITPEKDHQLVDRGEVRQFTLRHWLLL

Question: `COCCCC/C(=N\OCCN)c1ccc(C(F)(F)F)cc1` [(1E)-5-methoxy-1-[4-(trifluoromethyl)phenyl]pentan-1-one O-(2-aminoethyl)oxime] was tested. Which Ki [1] did it give?
Answer: 5000 nM

Question: What about the Ki [2] of the same molecule?
Answer: > 10000 nM

Question: Which results are given for `COC(=O)[C@H](c1ccccc1)[C@H]1CCCCN1` [methyl (2R)-phenyl[(2R)-piperidin-2-yl]acetate]?
Answer: Ki [3]: > 10000 nM; Ki [1]: 126 nM

Question: How did the Ki [1] turn out when `CCn1cc(C(=O)O)c(=O)c2ccc(Cc3ccccc3)nc21` was run?
Answer: > 10000 nM

Question: And the Ki [2]?
Answer: 18.7 nM

Question: Which Ki [1] does the source give for `C[C@H](N)Cc1ccccc1` [beta-aminopropylbenzene] here?
Answer: 1000 nM

Question: With `CNCCC(Oc1ccccc1OC)c1ccccc1` (stereo not drawn) [3-(2-methoxyphenoxy)-N-methyl-3-phenylpropan-1-amine] as the molecule, how does the Ki [1] read?
Answer: 0.46 nM
